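Where inhibition never reached the appropriate level, the endpoint shown equals the highest concentration tested. Otherwise, values were interpolated linearly from a five-concentration, 48-hour dose response in 96-well plates. GI50 = concentration required for 50% inhibition of growth.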 Calls of active or inactive are those of the source. No stated cut-off is given here; in the data, active = GI50 up to about 1.1 µM and inactive = higher.
Columns and labels:
Experiment in all cases: NCI tumour cell line growth inhibition, 48 h
[1] = system: MDA-MB-435
[2] = system: U-251
[3] = system: NCI-H226
[4] = system: K562
[5] = system: NCI-H23
[6] = system: Malme-3M
[7] = system: UO-31
[8] = system: LOX IMVI
[9] = system: NCI-H460
[10] = system: PC-3
[11] = system: SF-539
[12] = system: MCF7
[13] = system: RXF 393
[14] = system: SK-MEL-2
[15] = system: TK-10
[16] = system: SN12C
[17] = system: SNB-19
[18] = system: M14
[19] = system: ACHN
[20] = system: NCI-H522

Measured: GI50

O=C1NC(=O)C2=C1CCC2O (configuration not stated)
inactive: [1] > 100 µM | [2] > 100 µM | [3] > 100 µM | [4] > 100 µM | [5] > 100 µM | [6] > 100 µM | [7] > 100 µM | [8] > 100 µM | [9] > 100 µM | [10] > 100 µM | [11] > 100 µM | [12] > 100 µM | [13] > 100 µM | [14] > 100 µM | [15] > 100 µM | [16] > 100 µM | [17] > 100 µM | [18] > 100 µM | [19] > 100 µM

CCOC(=O)C1(Cc2ccc3c(c2)CCC3)Cc2cc3c(cc2C1)CCC3
inactive: [1] 35.7 µM | [2] 32.3 µM | [3] 31.6 µM | [4] 15.2 µM | [5] 35.7 µM | [6] 27.2 µM | [7] 49 µM | [20] 25.1 µM | [8] 15.4 µM | [9] 27.5 µM | [10] 21.9 µM | [11] 29.7 µM | [12] 16.4 µM | [14] 32.6 µM | [15] > 100 µM | [16] 27.8 µM | [17] 36.7 µM | [18] 21.5 µM | [19] 33.7 µM

Cc1ccc([N+](=O)[O-])cc1NC(=O)C(=O)Cc1cc(=O)oc2cc(O)ccc12
inactive: [2] > 100 µM | [3] > 100 µM | [4] 46.3 µM | [5] > 100 µM | [6] > 100 µM | [7] > 100 µM | [20] > 100 µM | [8] 26.6 µM | [9] 83.9 µM | [11] > 100 µM | [13] 28.1 µM | [14] > 100 µM | [15] > 100 µM | [16] > 100 µM | [17] > 100 µM | [18] > 100 µM | [19] > 100 µM

Cc1ccc(S(=O)(=O)N(CCNC(=O)c2cccc(O)c2O)c2cc3c4c(c2)Oc2cccc5c2C4(C)c2c(cccc2O3)O5)cc1
inactive: [1] 5.85 µM | [2] 8.83 µM | [3] 7.74 µM | [4] 41.1 µM | [5] > 100 µM | [6] 29.2 µM | [7] > 100 µM | [8] 6.08 µM | [9] > 100 µM | [10] 36 µM | [11] 73.3 µM | [12] 29.9 µM | [14] > 100 µM | [15] > 100 µM | [16] > 100 µM | [17] > 100 µM | [18] > 100 µM | [19] > 100 µM

c1ccc2c(c1)N=C(c1ccc3ccccc3c1)CC(c1cccc3ccccc13)S2 (configuration not stated)
inactive: [2] 60.1 µM | [3] 45.4 µM | [4] 17.2 µM | [5] 25.7 µM | [6] > 100 µM | [7] 59.7 µM | [20] 24.3 µM | [8] 25.3 µM | [9] 29.6 µM | [11] 51.6 µM | [13] 40.4 µM | [14] > 100 µM | [15] 75.7 µM | [16] 59.3 µM | [17] 46.8 µM | [18] 54.8 µM | [19] 38.5 µM

CCCC(=O)N1CCN(c2ccc3c(c2)OC(C)O3)CC1 (configuration not stated)
inactive: [1] > 100 µM | [2] > 100 µM | [3] > 100 µM | [4] > 100 µM | [5] > 100 µM | [6] > 100 µM | [7] > 100 µM | [20] > 100 µM | [9] > 100 µM | [10] > 100 µM | [11] > 100 µM | [12] > 100 µM | [13] > 100 µM | [15] > 100 µM | [16] > 100 µM | [17] > 100 µM | [18] > 100 µM | [19] > 100 µM

CC(=O)N1C(=O)c2cc3ccccc3cc21
inactive: [1] > 100 µM | [2] > 100 µM | [3] > 100 µM | [4] > 100 µM | [5] 95.5 µM | [7] > 100 µM | [8] > 100 µM | [9] > 100 µM | [10] > 100 µM | [11] > 100 µM | [12] 31.3 µM | [14] > 100 µM | [15] > 100 µM | [16] > 100 µM | [17] > 100 µM | [18] > 100 µM | [19] > 100 µM

Cc1ccc(/C=N/n2c(=O)[nH]c3ccccc3c2=O)cc1
inactive: [1] > 100 µM | [2] > 100 µM | [3] > 100 µM | [4] > 100 µM | [5] > 100 µM | [7] > 100 µM | [8] > 100 µM | [9] > 100 µM | [10] > 100 µM | [11] > 100 µM | [12] > 100 µM | [14] > 100 µM | [15] > 100 µM | [16] > 100 µM | [17] > 100 µM | [18] > 100 µM | [19] > 100 µM

Oc1ccc2ccccc2c1/N=N/c1cc(Cl)ccc1Cl
inactive: [1] > 50 µM | [2] 9.16 µM | [3] 49 µM | [4] 20.7 µM | [5] 44.5 µM | [6] 24.1 µM | [7] 21.3 µM | [20] 17.1 µM | [10] 43.5 µM | [13] 27 µM | [14] 28.4 µM | [15] 16 µM | [16] 13.3 µM | [17] 15.8 µM | [18] 14.6 µM | [19] 11 µM

NC12c3c4cccc3Oc3cccc(c31)Oc1cccc(c12)O4
inactive: [1] > 50 µM | [2] > 50 µM | [3] > 50 µM | [4] 31 µM | [5] > 50 µM | [7] > 50 µM | [20] 17.7 µM | [9] > 50 µM | [10] > 50 µM | [11] > 50 µM | [12] > 50 µM | [13] > 50 µM | [14] > 50 µM | [16] > 50 µM | [17] > 50 µM | [18] > 50 µM | [19] > 50 µM

COc1c(C2(c3ccc(F)cc3)SCCCS2)c(=O)c1=O
inactive: [1] > 100 µM | [2] > 100 µM | [3] > 100 µM | [4] > 100 µM | [5] > 100 µM | [6] > 100 µM | [7] > 100 µM | [8] > 100 µM | [9] > 100 µM | [10] > 100 µM | [11] > 100 µM | [12] > 100 µM | [13] > 100 µM | [14] > 100 µM | [15] > 100 µM | [16] > 100 µM | [17] > 100 µM | [18] > 100 µM | [19] > 100 µM

CCOC(=O)[C@@H]1ON2O[C@@H](OC3CCCCC3c3ccccc3)C[C@H]3OC(=O)[C@@H]1C32 (some centres not stated)
inactive: [1] 91.2 µM | [2] > 100 µM | [3] 93.8 µM | [4] > 100 µM | [5] 53.6 µM | [7] > 100 µM | [20] 87.1 µM | [8] > 100 µM | [9] 38.1 µM | [11] > 100 µM | [12] > 100 µM | [13] > 100 µM | [15] > 100 µM | [16] > 100 µM | [18] > 100 µM | [19] > 100 µM

COc1ccc(-c2c3c(n(C4OC(CO)C(O)C(O)C4O)c(=S)c2C#N)CCCC3)cc1 (configuration not stated)
inactive: [1] > 100 µM | [3] > 100 µM | [5] > 100 µM | [6] > 100 µM | [8] > 100 µM | [9] > 100 µM | [10] > 100 µM | [11] > 100 µM | [12] > 100 µM | [13] > 100 µM | [14] > 100 µM | [15] > 100 µM | [16] > 100 µM | [18] > 100 µM | [19] > 100 µM

O=C(N/N=C\c1ccc([N+](=O)[O-])s1)c1ccncc1
inactive: [1] 18.4 µM | [2] 17.7 µM | [3] 5.15 µM | [4] > 10 µM | [5] 16.2 µM | [6] 8.18 µM | [7] 17.2 µM | [20] 4.75 µM | [9] 6.65 µM | [10] 11.6 µM | [11] 6.28 µM | [12] 3.02 µM | [13] 16.9 µM | [14] 18.2 µM | [15] 23.1 µM | [16] 8.65 µM | [17] 33.4 µM | [18] 11.6 µM | [19] 18.3 µM

C[NH+]1[C@@H](Cc2ccccc2)C(=O)O[B-]1(F)c1ccccc1 (some centres not stated)
inactive: [1] > 100 µM | [2] > 100 µM | [3] > 100 µM | [4] > 100 µM | [5] > 100 µM | [6] > 100 µM | [7] > 100 µM | [9] > 100 µM | [10] > 100 µM | [12] > 100 µM | [15] > 100 µM | [16] > 100 µM | [17] > 100 µM | [18] > 100 µM | [19] > 100 µM

CCCCCCCN(CCCCCCC)CC(O)c1cc2ccccc2c2cc(Br)ccc12 (configuration not stated)
inactive: [1] 33.1 µM | [2] 18.3 µM | [4] 30.7 µM | [5] 36 µM | [6] 19.5 µM | [7] 57.1 µM | [20] 28.7 µM | [8] 14.2 µM | [9] 23.1 µM | [10] 24.2 µM | [11] > 100 µM | [12] 12.7 µM | [14] 33.1 µM | [15] 47.6 µM | [16] 6.58 µM | [17] 38.7 µM | [18] 22.6 µM | [19] 24.5 µM

Source: ChEMBL document CHEMBL1201862, “PubChem BioAssay data set” (2004)
